Where a name gives a salt, the structure may show the parent alone.
Assays:
[1] = molecular target: T1, Recombinant (1-346) HPK1 (h) (Homo sapiens, UniProt Q92918); assay: HPK1 Human STE Kinase Enzymatic Radiometric Assay; type: biochemical; settings: read-out: HPK1 IC50 nM Range*
T1 construct: Recombinant (1-346) HPK1 (h) is incubated with 8 mM MOPS pH 7.0
T1 sequence (Q92918 1-346): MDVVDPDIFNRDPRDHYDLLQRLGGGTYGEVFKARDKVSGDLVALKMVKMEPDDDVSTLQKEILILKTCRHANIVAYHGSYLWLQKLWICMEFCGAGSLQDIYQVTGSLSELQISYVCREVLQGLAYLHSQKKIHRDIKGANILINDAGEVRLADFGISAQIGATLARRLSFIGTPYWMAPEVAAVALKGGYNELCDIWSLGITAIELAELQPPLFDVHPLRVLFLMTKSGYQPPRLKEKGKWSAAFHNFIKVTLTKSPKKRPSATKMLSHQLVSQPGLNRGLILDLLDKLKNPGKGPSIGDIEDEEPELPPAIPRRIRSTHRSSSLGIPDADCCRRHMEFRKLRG
Experimental: A stock solution of 10 mM of test compound is prepared in DMSO. The compound plate was prepared by 3-fold and 9-point serial dilutions. […] The reaction is initiated by The addition of the Mg/ATP mix. After incubation for 40 minutes at RT, the reaction is stopped by the addition of phosphoric acid to a concentration of 0.5%.

[2] = molecular target: Lck (h) (Homo sapiens, UniProt P06239); assay: Lck Human  Kinase Enzymatic Radiometric Assay; type: biochemical; settings: read-out: Lck IC50 nM Range*
Lck (h), sequence (P06239 whole entry): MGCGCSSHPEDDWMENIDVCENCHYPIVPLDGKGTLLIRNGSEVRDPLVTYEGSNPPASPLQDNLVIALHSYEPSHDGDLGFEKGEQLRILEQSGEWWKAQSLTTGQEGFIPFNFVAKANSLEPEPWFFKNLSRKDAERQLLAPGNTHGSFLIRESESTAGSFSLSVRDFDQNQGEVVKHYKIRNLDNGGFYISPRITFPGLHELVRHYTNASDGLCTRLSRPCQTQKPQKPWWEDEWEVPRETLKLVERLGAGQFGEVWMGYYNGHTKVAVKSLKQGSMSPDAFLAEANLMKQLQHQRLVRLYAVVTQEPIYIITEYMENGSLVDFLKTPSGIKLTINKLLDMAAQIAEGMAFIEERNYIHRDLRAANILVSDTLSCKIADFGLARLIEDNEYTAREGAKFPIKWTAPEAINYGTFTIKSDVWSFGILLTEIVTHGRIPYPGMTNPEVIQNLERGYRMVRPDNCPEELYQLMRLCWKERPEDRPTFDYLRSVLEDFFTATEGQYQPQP
Outline: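 Substrate 33P-incorporation measured by scintillation counting after spotting on P30 filtermat and phosphoric acid washes. Human Lck reacted 40 min at RT in 50 mM Tris pH 7.5 with 10 mM MgAcetate, [gamma-33P]-ATP, 250 uM Cdc2 peptide, 0.1 mM EGTA and 0.1 mM Na3VO4.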

| IC50 [1] | IC50 [2] | Compound |
| --- | --- | --- |
| 11 to 100 nM | > 1000 nM | CN1CCN(Cc2ccc(-c3cc(-c4ccc5c(c4)CCNC5=O)c(N)nc3F)cc2)CC1 [I-258, 6-(2-amino-6-fluoro-5-(4-((4-methylpiperazin-1-yl)methyl)phenyl)pyridin-3-yl)-3,4-dihydroisoquinolin-1(2H)-one] |
| 11 to 100 nM | > 1000 nM | CN1CCN(C(=O)c2ccc(-c3cc(-c4ccc5c(c4)CCNC5=O)c(N)nc3F)cc2)CC1 [I-259, 6-(2-amino-6-fluoro-5-(4-(4-methylpiperazine-1-carbonyl)phenyl)pyridin-3-yl)-3,4-dihydroisoquinolin-1(2H)-one] |
| 11 to 100 nM | > 1000 nM | CN1CCN(C2(c3ccc(-c4cc(-c5ccc6c(c5)CCNC6=O)c(N)nc4F)cc3)CC2)CC1 [I-260, 6-(2-amino-6-fluoro-5-(4-(1-(4-methylpiperazin-1-yl)cyclopropyl)phenyl)pyridin-3-yl)-3,4-dihydroisoquinolin-1(2H)-one] |
| 11 to 100 nM | > 1000 nM | CC(C)N1CCC(Oc2ccc(-c3cc(-c4ccc5c(c4)CCNC5=O)c(N)nc3F)cc2C(F)(F)F)CC1 [I-261, 6-(2-amino-6-fluoro-5-(4-((1-isopropylpiperidin-4-yl)oxy)-3-(trifluoromethyl)phenyl)pyridin-3-yl)-3,4-dihydroisoquinolin-1(2H)-one] |
| 0.1 to 10 nM | > 1000 nM | COCCN1CCC(Oc2ccc(-c3cc(-c4ccc5c(c4)CCNC5=O)c(N)nc3F)cc2C(F)(F)F)CC1 [I-262, 6-(2-amino-6-fluoro-5-(4-((1-(2-methoxyethyl)piperidin-4-yl)oxy)-3-(trifluoromethyl)phenyl)pyridin-3-yl)-3,4-dihydroisoquinolin-1(2H)-one] |
| 0.1 to 10 nM | > 1000 nM | CC(C)N1CCN(c2ccc(-c3cc(-c4cc5c(cc4F)C(=O)NCC5)c(N)nc3F)cc2C(F)(F)F)CC1 [I-263, 6-(2-amino-6-fluoro-5-(4-(4-isopropylpiperazin-1-yl)-3-(trifluoromethyl)phenyl)pyridin-3-yl)-7-fluoro-3,4-dihydroisoquinolin-1(2H)-one] |
| 0.1 to 10 nM | > 1000 nM | COCCN1CCN(c2ccc(-c3cc(-c4cc5c(cc4F)C(=O)NCC5)c(N)nc3F)cc2C(F)(F)F)CC1 [I-264, 6-(2-amino-6-fluoro-5-(4-(4-(2-methoxyethyl)piperazin-1-yl)-3-(trifluoromethyl)phenyl)pyridin-3-yl)-7-fluoro-3,4-dihydroisoquinolin-1(2H)-one] |
| 11 to 100 nM | > 1000 nM | Nc1nc(F)c(-c2cccc(CN3CCNCC3)c2)cc1-c1ccc2c(c1)CCNC2=O [I-265, 6-(2-amino-6-fluoro-5-(3-(piperazin-1-ylmethyl)phenyl)pyridin-3-yl)-3,4-dihydroisoquinolin-1(2H)-one formate] |
| 11 to 100 nM | > 1000 nM | COCCN1CCc2cc(-c3cc(-c4ccc5c(c4)CCNC5=O)c(N)nc3F)ccc2C1 [I-266, 6-(2-amino-6-fluoro-5-(2-(2-methoxyethyl)-1,2,3,4-tetrahydroisoquinolin-6-yl)pyridin-3-yl)-3,4-dihydroisoquinolin-1(2H)-one] |
| 0.1 to 10 nM | > 1000 nM | CC(C)N1CCC(Oc2ccc(-c3cc(-c4ccc5c(c4)CCNC5=O)c(N)nc3F)cc2)CC1 [I-267, 6-(2-amino-6-fluoro-5-(4-((1-isopropylpiperidin-4-yl)oxy)phenyl)pyridin-3-yl)-3,4-dihydroisoquinolin-1(2H)-one] |
| 0.1 to 10 nM | > 1000 nM | CC(C)N1CCC(Oc2ccc(-c3cc(-c4ccc5c(c4)CCNC5=O)c(N)nc3F)cc2F)CC1 [I-268, 6-(2-amino-6-fluoro-5-(3-fluoro-4-((1-isopropylpiperidin-4-yl)oxy)phenyl)pyridin-3-yl)-3,4-dihydroisoquinolin-1(2H)-one] |
| 0.1 to 10 nM | > 1000 nM | COCCN1CCC(Oc2ccc(-c3cc(-c4ccc5c(c4)CCNC5=O)c(N)nc3F)cc2F)CC1 [I-269, 6-(2-amino-6-fluoro-5-(3-fluoro-4-((1-(2-methoxyethyl)piperidin-4-yl)oxy)phenyl)pyridin-3-yl)-3,4-dihydroisoquinolin-1(2H)-one] |
| 11 to 100 nM | > 1000 nM | CC(C)N1CCC(Oc2ccc(-c3cc(-c4ccc5c(c4)CCNC5=O)c(N)nc3F)c(F)c2F)CC1 [I-270, 6-(2-amino-5-(2,3-difluoro-4-((1-isopropylpiperidin-4-yl)oxy)phenyl)-6-fluoropyridin-3-yl)-3,4-dihydroisoquinolin-1(2H)-one] |
| 11 to 100 nM | > 1000 nM | CC(C)N1CCC(Oc2cc(F)c(-c3cc(-c4ccc5c(c4)CCNC5=O)c(N)nc3F)cc2F)CC1 [I-271, 6-(2-amino-5-(2,5-difluoro-4-((1-isopropylpiperidin-4-yl)oxy)phenyl)-6-fluoropyridin-3-yl)-3,4-dihydroisoquinolin-1(2H)-one] |
| 0.1 to 10 nM | > 1000 nM | COc1cc(OC2CCN(C(C)C)CC2)ccc1-c1cc(-c2ccc3c(c2)CCNC3=O)c(N)nc1F [I-272, 6-(2-amino-6-fluoro-5-(4-((1-isopropylpiperidin-4-yl)oxy)-2-methoxyphenyl)pyridin-3-yl)-3,4-dihydroisoquinolin-1(2H)-one] |
| 0.1 to 10 nM | > 1000 nM | COc1cc(-c2cc(-c3ccc4c(c3)CCNC4=O)c(N)nc2F)ccc1OC1CCN(C(C)C)CC1 [I-273, 6-(2-amino-6-fluoro-5-(4-((1-isopropylpiperidin-4-yl)oxy)-3-methoxyphenyl)pyridin-3-yl)-3,4-dihydroisoquinolin-1(2H)-one] |
| 0.1 to 10 nM | > 1000 nM | CC(C)N1CCC[C@H](Oc2ccc(-c3cc(-c4ccc5c(c4)CCNC5=O)c(N)nc3F)cc2)C1 [I-274, (S)-6-(2-amino-6-fluoro-5-(4-((1-isopropylpiperidin-3-yl)oxy)phenyl)pyridin-3-yl)-3,4-dihydroisoquinolin-1(2H)-one] |
| 0.1 to 10 nM | > 1000 nM | CC(C)N1CCC(Oc2ccc(-c3cc(-c4ccc5c(c4)CCNC5=O)c(N)nc3F)c3c2OCO3)CC1 [I-275, 6-(2-amino-6-fluoro-5-(7-((1-isopropylpiperidin-4-yl)oxy)benzo[d][1,3]dioxol-4-yl)pyridin-3-yl)-3,4-dihydroisoquinolin-1(2H)-one] |
| 11 to 100 nM | > 1000 nM | CNCC1Cc2cc(-c3cc(-c4ccc5c(c4)CCNC5=O)c(N)nc3F)ccc2C(=O)N1 (stereo not drawn) [I-276, 6-(6-amino-2-fluoro-5-(1-oxo-1,2,3,4-tetrahydroisoquinolin-6-yl)pyridin-3-yl)-3-((methylamino)methyl)-3,4-dihydroisoquinolin-1(2H)-one] |
| 0.1 to 10 nM | > 1000 nM | CN1CCCN(c2ccc(-c3cc(-c4ccc5c(c4)CCNC5=O)c(N)nc3F)cc2)CC1 [I-277, 6-(2-amino-6-fluoro-5-(4-(4-methyl-1,4-diazepan-1-yl)phenyl)pyridin-3-yl)-3,4-dihydroisoquinolin-1(2H)-one] |
| 0.1 to 10 nM | > 1000 nM | CC(C)N1CCN(c2ccc(-c3cc(-c4ccc5c(c4)CCNC5=O)c(N)nc3F)cc2)CC1C (stereo not drawn) [I-278, 6-(2-amino-6-fluoro-5-(4-(4-isopropyl-3-methylpiperazin-1-yl)phenyl)pyridin-3-yl)-3,4-dihydroisoquinolin-1(2H)-one] |
